Measurements published in the supplement of paper PMC5908809.

Assays:
Assay in all cases: percent inhibition of viability; higher = more inhibition
[1] = tested on: normal primary NK cells, pool 1 (3 donors), resting (IL-2 0 ng/mL); details: 72 h
NKL (IL-2 2.5 ng/mL) = details: 72 h
[2] = tested on: normal primary NK cells, pool 1 (3 donors) (IL-2 2.5 ng/mL); details: 72 h
[3] = tested on: normal primary NK cells, pool 3 (3 donors) (IL-2 2.5 ng/mL); details: 72 h
IMC-1 (IL-2 20 ng/mL) = details: 72 h
SNK-6 (IL-2 2.5 ng/mL) = details: 72 h
KHYG-1 (IL-2 2.5 ng/mL) = details: 72 h
DERL-7 (IL-2 2.5 ng/mL) = details: 72 h
[4] = tested on: normal NK cells expanded with K562-aAPC; details: 72 h, IL-2 2.5 ng/mL
Method: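 Drug sensitivity and resistance testing on K562-aAPC-expanded normal NK cells: 5 concentrations (10-fold steps over a 10,000-fold range), 72 h at 37 °C, viability by CellTiter-Glo normalised to DMSO and benzethonium chloride controls; DSS from the fitted curve.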

CCCCCCCCc1ccc(CCC(N)(CO)CO)cc1 [Fingolimod] (max concentration tested 10000 nM)
percent inhibition of viability [%]
Details	DERL-7 (IL-2 2.5 ng/mL)	IMC-1 (IL-2 20 ng/mL)	KHYG-1 (IL-2 2.5 ng/mL)	NKL (IL-2 2.5 ng/mL)	SNK-6 (IL-2 2.5 ng/mL)	[1]	[2]	[3]	[4]
1 nM	2.13	1.04	-0.79	-3	2.86	–	-0.71	-17.7	-2.7
10 nM	-1.97	3.67	1.01	6.8	25.2	–	-3.03	-6.84	-1.12
100 nM	5.25	4.21	0.07	9.6	18.7	–	-0.07	5.41	2.03
1000 nM	14.2	10.1	10.2	30.1	13.7	-3.49	8.48	-5.02	16.4
10000 nM	100	101	102	101	101	100	101	100	101
